BindingDB's records for doi:10.1021/jm801322h (Pfizer, 2009)

Target: T1, Gag-Pol polyprotein [588-1027] (Human immunodeficiency virus type 1 group M subtype B (isolate HXB2), UniProt P04585)
T1 construct: 588-1027
Assay: Reverse Transcriptase Assay
Settings: pH 7.8; 37 °C
Description: The inhibition of the RNA-dependent DNA polymerase activity of the HIV-1 reverse transcriptase enzyme was measured using a primer extension assay. The substrate-incorporated radioactivity was measured using the Topcount NXT with a reading time of 1 minute/well and IC50 were deduced from the dose response curves obtained.

CNCc1n[nH]c2cccc(Oc3cc(C#N)cc(C#N)c3)c12 [5-({3-[(methylamino)methyl]-1H-indazol-4-yl}oxy)benzene-1,3-dicarbonitrile] showed an IC50 greater than 30 µM.
